According to patent US20170196834A1, “PREPARATION AND APPLICATION OF FLAVONOL AS BRAIN-TARGETING SYNERGIST” (GUANGDONG PHARMACEUTICAL UNIVERSITY, priority 2014, published 2017):
Read-outs that look alike come from different tables or passages of the source. Blank lines part the entries; values can stand above or below the molecule they belong to.

Legend:
[1] = water; cited from earlier work
[2] = Vinpocetine, edaravone, oxiracetam in blood and brain tissue 0.5 h after intragastric administration, UPLC-MS (Example 6); assay type: in vivo; settings: rat, oral, SD rats, intragastric 100 mg/kg
Protocol: Treatment Group: LXN6, LXN7, LXN8 were made into suspensions respectively. Five SD rats were administered the suspensions at the dose of 100 mg/kg and the volume of 20 ml/kg by intragastric administration;
Control group: vinpocetine, edaravone, oxiracetam were made into suspension. Five SD rats were administered the suspension at the dose of 100 mg/kg and the volume of 20 ml/kg by intragastric administration;
The rats were drewd blood 0.5 h after administration, then sacrificed under anaesthesia. Brain tissues were taken to prepare brain homogenates. The content of active ingredient in the blood and brain tissues was detected by UPLC-MS.

[3] = system: MCAO forebrain ischemia; assay: MCAO forebrain ischemia rats, infarction area, nerve regeneration, learning and memory (Example 6); assay type: in vivo; settings: 100 mg vinpocetine/edaravone/oxiracetam per kg, intragastric, 7 days after administration
Protocol: In addition, 70 rats of MCAO forebrain ischemia were prepared, and they were administrated with solvent saline, or administrated with LXN6, LXN7 or LXN8, containing vinpocetine, edaravone or oxiracetam, respectively, at a dosage of 100 mg vinpocetine/edaravone/oxiracetam per kg body weight, or administrated with vinpocetine, edaravone or oxiracetam at a dosage of 100 mg/kg.
Intragastric administration at an amount of 20 ml/kg was conducted, for 10 rats per group; Animals were sacrificed 7 days after administration, to observe the improvement rate of cerebral infarction area and the improvement rate of nerve regeneration, learning and memory ability.

[4] = Stilbene glucoside in blood and brain tissues 0.5 h after intragastric administration, UPLC-MS (Example 3); assay type: in vivo; settings: SD rats, 100 mg/kg stilbene glucoside, 0.5 h after administration
Protocol: Treatment Group: LXN2-1 and LXN2-2 were made into suspension. 5 SD rats were administered the suspension with the dose of 100 mg/kg stilbene glucoside and the volume of 20 ml/kg by intragastric administration;
Control group: stilbene glucoside extract was made into suspension. 5 SD rats were administered the suspension at the dose of 100 mg/kg stilbene glucoside and the volume of 20 ml/kg by intragastric administration;
The rats were drew blood 0.5 h after administration and then sacrificed under anaesthesia. Brain tissues were taken to prepare brain homogenates. The content of stilbene glucoside in the blood and brain tissues were detected by UPLC-MS.

[5] = system: 4-VO local cerebral ischemia; assay: 4-VO local cerebral ischemia rats, nerve regeneration, learning and memory (Example 3); assay type: in vivo; settings: 4-VO rats, gavage, 7 days after administration
Protocol: In addition, 40 rats of 4-VO local cerebral ischemia were prepared and they were administered with solvent saline, 100 mg/kg […], […] and stilbene glucoside by gavage at the volume of 20 ml/kg, 10 rats per group; Animals were sacrificed 7 days after administration, to observe the improve rate of nerve regeneration, learning and memory.

[6] = Rb1 in blood and brain tissues 0.5 h after intragastric administration, UPLC-MS (Example 1); assay type: in vivo; settings: SD rats, equivalent to ginsenoside Rb1 100 mg/kg, 0.5 h after administration
Protocol: Treatment Group: The LXN1-1 and LXN1-2 were made into suspension, administered to SD rats by intragastric administration. Five rats were given 20 ml/kg according to the dose of 125/150 mg/kg (equivalent to ginsenoside Rb1 100 mg/kg);
Control group: ginsenoside […] extract was made into suspension, administered to SD rats by intragastric administration. Five rats were given ginsenoside Rb1 at the volume of 20 ml/kg according to the dose of 100 mg/kg;
The rats were drew blood 0.5 h after administration and then sacrificed under anaesthesia. Brain tissues were taken to prepare brain homogenates. The content of TCM active ingredient in the blood and brain tissues was detected by UPLC-MS.

[7] = system: MCAO forebrain ischemia; assay: MCAO forebrain ischemia rats, improvement rate of cerebral infarction area (Example 1); assay type: in vivo; settings: gavage, 7 days after administration
Protocol: In addition, […] of MCAO forebrain ischemia were prepared, and they were administered solvent saline, 100 mg/kg LXN1 or ginsenoside Rb1 by gavage at 20 ml/kg, 10 rats per group; Animals were sacrificed 7 days after administration, to observe the improvement rate of cerebral infarction area.

Molecule: O=c1c(O)c(-c2ccc(O)cc2)oc2cc(O)cc(O)c12 [Kaempferol]
solubility in water [1]: slightly soluble in water

concentration at 0.5 h ([2]; blood, read-out: Edaravone content in the blood): 58300 ng/mL
concentration at 0.5 h ([2]; brain, read-out: Edaravone content in the brain tissue): 128 ng/mL
Molecule: CC1=NN(c2ccccc2)C(=O)C1 [Edaravone, edaravone]
Improvement rate of learning and memory [3]: 45.1
Infarction area [3]: 24.1%
Nerve regeneration rate [3]: 80%
Space exploration distance [3]: 51.0 cm

Content of stilbene glucoside in brain tissues [4]: 40.2 ± 16.1 ng/g
Plasma concentration of stilbene glucoside [4]: 3350 ± 680 ng/mL
Molecule: stilbene glucoside
Improvement rate of learning and memory [5]: 31.6 ± 21.0%
Nerve regeneration rate [5]: 81.2 ± 35.6%

Molecule: CC(C)=CCC[C@](C)(O[C@@H]1O[C@H](CO[C@@H]2O[C@H](CO)[C@@H](O)[C@H](O)[C@H]2O)[C@@H](O)[C@H](O)[C@H]1O)[C@H]1CC[C@]2(C)[C@@H]1[C@H](O)C[C@@H]1[C@@]3(C)CC[C@H](O[C@@H]4O[C@H](CO)[C@@H](O)[C@H](O)[C@H]4O[C@@H]4O[C@H](CO)[C@@H](O)[C@H](O)[C@H]4O)C(C)(C)[C@@H]3CC[C@]12C [Rb1, ginsenoside Rb1]
Rb1 content in brain tissues [6]: 4.12 ± 1.13 ng/g
Rb1 plasma concentration [6]: 3.35 ± 0.68 µg/mL
Improvement rate of cerebral infarction area [7]: 22.1 ± 9.1%

concentration at 0.5 h ([2]; blood, read-out: Vinpocetine content in the blood): 84400 ng/mL
concentration at 0.5 h ([2]; brain, read-out: Vinpocetine content in the brain tissue): 124 ng/mL
Molecule: CCOC(=O)C1=C[C@]2(CC)CCCN3CCc4c(n1c1ccccc41)[C@@H]32 [Vinpocetine, vinpocetine]
Improvement rate of learning and memory [3]: 59.9
Infarction area [3]: 23.1%
Nerve regeneration rate [3]: 87%
Space exploration distance [3]: 56.2 cm
